The target of assay [1] is T1, ABL1 (64-515) (Homo sapiens, UniProt P00519).
T1 construct: 3.5 nM ABL (ABL(64-515), produced in-house from E. coli); His6 followed by a PreScission protease cleavage site (N, cleaved yes); made in house; host or cells: E. coli (BL21 (DE3) according to b733)
The assay can be described thus: Radio ABL1 (64-515) radiometric filter-binding assay. The format is biochemical.
Procedure: Expression and purification of protein kinase—Expression and purification of human ABL was performed using standard expression purification procedures. […] The His-ABL was expressed in E. coli BL21 (DE3) and the ABL proteins were isolated by Ni-affinity on a Ni-NTA column (Qiagen). The His-tag was removed by PreScission protease (GE Healthcare) and the non-phosphoprylated ABL further purified on a Mono Q HR 10/10 (GE Healthcare, mono-phosphorylated ABL is about 10-20% of total ABL protein) and HiLoad 16/60 Superdex 200 size exclusion column (GE Healthcare).
For determination of ABL kinase activity, the radiometric filter-binding assay was used. […] 10 μL of enzyme (ranging between 5 nM to 20 nM) was added to initiate the reaction. Pre-incubation of enzyme with compounds (when stated) was performed by exposing the enzyme to compounds prior to addition of the substrate mixture (ATP and/or peptide substrate). […] Filter-plates were washed 3× with 0.5% H3PO4, followed by addition of 30 μL scintillation cocktail (Microscint, Perkin Elmer) per well and then analysed in a TopCount NXT scintillation counter (Perkin Elmer). Results were expressed as IC50 values.

The target in assay [2] is T1, ABL1 (64-515). In words: Caliper ABL1 (64-515) microfluidic mobility shift assay. The format is biochemical.
Procedure: All assays were performed in 384-well microtiter plates. Each assay plate contained 8-point serial dilutions for 40 test compounds, as well as four 8-point serial dilutions of staurosporine as a reference compound, plus 16 high and 16 low controls. Liquid handling and incubation steps were done on a Thermo CatX workstation equipped with Innovadyne Nanodrop Express. Between pipetting steps, tips were cleaned in wash cycles using wash buffer.
The assay plates were prepared by addition of 50 mL per well of compound solution in 90% DMSO. […] Plates with terminated kinase reactions were transferred to the Caliper LC3000 workstations for reading. Phosphorylated and unphosphorylated peptides were separated using the Caliper microfluidic mobility shift technology. Briefly, samples from terminated kinase reactions were applied to the chip. Analytes are transported through the chip by constant buffer flow and the migration of the substrate peptide is monitored by the fluorescence signal of its label. Phosphorylated peptide (product) and unphosphorylated peptide (substrate) are separated in an electric field by their charge/mass ratio. Kinase activities were calculated from the amounts of formed phospho-peptide. IC50 values were determined from percent inhibition values at different compound concentrations by non-linear regression analysis.
Preparation of compound dilutions: Test compounds were dissolved in DMSO (10 mM) and transferred into 1.4 mL flat bottom or V-shaped Matrix tubes carrying a unique 2D matrix. The stock solutions were stored at +2° C. if not used immediately. For the test procedure the vials were defrosted and identified by a scanner whereby a working sheet was generated that guided the subsequent working steps.
Compound dilutions were made in 96-well plates. This format enabled the assay of maximally 40 individual test compounds at 8 concentrations (single points) including 4 reference compounds. The dilution protocol included the production of “pre-dilution plates”, “master plates” and “assay plates”.
Pre-dilution plates: Polypropylene 96-well plates were used as pre-dilution plates. […] All dilution steps were done on a HamiltonSTAR robot.
These plates were used directly for the assay which was performed in a total volume of 9.05 μL.
The target of assay [3] is T2, Ba/F3-BCR-ABL1-WT cells (Homo sapiens, UniProt P00519).
T2 construct: fused on or other part: P11274 (Breakpoint cluster region protein)
The assay can be described thus: Ba/F3-BCR-ABL1-WT cell proliferation assay. It counts as cell-based, murine. The note with it: 48 hours; read-out: Ba/F3-BCR-ABL1-WT IC50.
Procedure: To generate Ba/F3 cells that depend on BCR-ABL1 expression for growth and survival, Ba/F3 cells were engineered to express BCR-ABL1 using retroviral transduction with a MSCV based retroviral vector containing a p210 BCR-ABLlexpression cassette. […] These cells are referred to as Ba/F3-BCR-ABL-WT.
Ba/F3-WT cells were maintained in RPMI1640 media with L-glutamine, HEPES (Lonza), 10% FBS (Gibco) and 5 ng/ml IL-3 (Calbiochem). Ba/F3-BCR-ABL1-WT cells and Ba/F3-BCR-ABL1-T315I cells were manitained in RPMI1640 media with L-glutamine, HEPES (Lonza) and 10% FBS (Gibco).
For each cell line, the cell density was adjusted to 50 000 cells/mL and 50 μL (2500 cells) added per well of a 384-well assay plate.
Test compounds were resuspended in DMSO at a concentration of 10 mM. A serial three-fold dilution of each compound with DMSO was performed in 384-well plates using the Janus Liquid Dispenser (PerkinElmer). Compound was delivered to the assay plates containing 2500 cells in a 50 μL volume via Acoustic delivery from an ATS-100 (EDC).
Cells were incubated at 37° C. in a humidified environment with 5% carbon dioxide for 48 hours. Britelite plus solution (Perkin Elmer) was prepared according to the manufacturer's instructions and 25 μL added to each well of the assay plate. […] The degree of luminescence correlates with the number of cells in each well. The effect of each inhibitor concentration can therefore be calculated and IC50 values generated.

Assay [4] deals with T3, Ba/F3-BCR-ABL1-T315I cells (Homo sapiens, UniProt P00519, T315I, cells depend on it).
T3 construct: A similar approach was used to generate Ba/F3 cells that depend on a BCR-ABL1 variant in which threonine 315 is replaced with isoleucine; fused on or other part: P11274 (Breakpoint cluster region protein)
The assay can be described thus: Ba/F3-BCR-ABL1-T315I cell proliferation assay. The format is cell-based, murine. The note with it: 48 hours; read-out: Ba/F3-BCR-ABL1-T315I IC50.

[5] abbreviates: comparison of ortho substitution on R3/R4 ring.

Take `Cc1cn[nH]c1-c1cc(C(=O)Nc2ccc(OC(F)(F)F)cc2)cnc1N1CC[C@@H](O)C1` [Example 4, (R)-6-(3-Hydroxypyrrolidin-1-yl)-5-(4-methyl-1H-pyrazol-5-yl)-N-(4-(trifluoromethoxy)phenyl)nicotinamide]: the IC50 in assay [1] was 3.4 nM; in assay [2] (Table of Biochemical Data), 1.3 nM. Besides, the GI50 is 11.7 nM in assay [3] and 327 nM in assay [4].
For the compound `O=C(Nc1ccc(OC(F)(F)Cl)cc1)c1cnc(N2CC[C@@H](O)C2)c(-c2cc(C(F)(F)F)n[nH]2)c1` [Example 26, (R)—N-(4-(Chlorodifluoromethoxy)phenyl)-6-(3-hydroxypyrrolidin-1-yl)-5-(3-(trifluoromethyl)-1H-pyrazol-5-yl)nicotinamide], the IC50 is 12 nM in assay [1] and 10.4 nM in assay [2] (Table of Biochemical Data). The results for the GI50 in assay [3] and in assay [4] were 9 nM and 227 nM, respectively.
For the compound `COC(=O)C1CCN(c2ncc(C(=O)Nc3ccc(OC(F)(F)Cl)cc3)cc2-c2ccn[nH]2)C1` (stereo not shown) [Example 36, Methyl 1-(5-((4-(chlorodifluoromethoxy)phenyl)carbamoyl)-3-(1H-pyrazol-5-yl)pyridin-2-yl)pyrrolidine-3-carboxylate], in assay [2] (Table of Biochemical Data), the half-inhibitory concentration (IC50) was determined as 2.1 nM. In addition, the GI50 in assay [3] was 1.9 nM; in assay [4] it was 71 nM.
Regarding `O=C(Nc1ccc(OC(F)(F)F)c(F)c1)c1cnc(N2CC[C@@H](O)C2)c(-c2ccn[nH]2)c1` [Example 13, (R)—N-(3-Fluoro-4-(trifluoromethoxy)phenyl)-6-(3-hydroxypyrrolidin-1-yl)-5-(1H-pyrazol-5-yl)nicotinamide], the IC50 is 10 nM in assay [1] and 0.6 nM in assay [2] (Table of Biochemical Data). Further, the GI50 was 9.6 nM in assay [3] and 150 nM in assay [4].
The corresponding values for `O=C(Nc1ccc(OC(F)(F)F)c(F)c1)c1cnc(N2CC[C@H](CO)C2)c(-c2ccn[nH]2)c1` [Example 14, (S)—N-(3-Fluoro-4-(trifluoromethoxy)phenyl)-6-(3-(hydroxymethyl)pyrrolidin-1-yl)-5-(1H-pyrazol-5-yl)nicotinamide] are 10 nM, 0.9 nM, 18.9 nM and 218 nM.
On to `Cc1cc(-c2cc(C(=O)Nc3ccc(OC(F)(F)Cl)cc3)cnc2N2CC[C@@H](O)C2)[nH]n1` [Example 23, (R)—N-(4-(Chlorodifluoromethoxy)phenyl)-6-(3-hydroxypyrrolidin-1-yl)-5-(3-methyl-1H-pyrazol-5-yl)nicotinamide], for which the IC50 in assay [1] came out at 7 nM; in assay [2] (Table of Biochemical Data), 0.5 nM. In addition, the GI50 came to 1.7 nM in assay [3] and 42 nM in assay [4].
Regarding `CC(F)(F)Oc1ccc(NC(=O)c2cnc(N3CC[C@@H](O)C3)c(-c3ccn[nH]3)c2)cc1` [Example 30, (R)—N-(4-(1,1-Difluoroethoxy)phenyl)-6-(3-hydroxypyrrolidin-1-yl)-5-(1H-pyrazol-5-yl)nicotinamide], the results for the IC50 in assay [1] and in assay [2] (Table of Biochemical Data) were 0.4 nM and 4.3 nM, respectively. Moreover, the GI50 in assay [3] was 31.8 nM; in assay [4], 715 nM.
Regarding `O=C(Nc1ccc(OC(F)(F)Cl)cc1)c1cnc(N2CCC(C(=O)O)C2)c(-c2ccn[nH]2)c1` (stereo not shown) [Example 37], in assay [2] (Table of Biochemical Data), the concentration for half-maximal inhibition (IC50) was determined as 0.5 nM.
As to `CC(C)[C@H](N)C(=O)O[C@@H]1CCN(c2ncc(C(=O)Nc3ccc(OC(F)(F)Cl)cc3)cc2-c2ccn[nH]2)C1` [Example 38], the results for the IC50 in assay [1] and in assay [2] (Table of Biochemical Data) were 4 nM and 2.5 nM, respectively.
With `O=C(Nc1ccc(OC(F)(F)F)cc1)c1cnc(N2CC[C@@H](OP(=O)(O)O)C2)c(-c2ccn[nH]2)c1` [Example 40, (R)-1-(3-(1H-Pyrazol-5-yl)-5-(4-(trifluoromethoxy)phenyl)carbamoyl)pyridin-2-yl)pyrrolidin-3-yl dihydrogen phosphate], in assay [2] (Table of Biochemical Data), the IC50 came out at 2.1 nM.
Consider `O=C(Nc1ccc(OC(F)(F)Cl)cc1)c1cnc(N2CC[C@H](CO)C2)c(-c2ccn[nH]2)c1` [Example 10, (S)—N-(4-(Chlorodifluoromethoxy)phenyl)-6-(3-(hydroxymethyl)pyrrolidin-1-yl)-5-(1H-pyrazol-5-yl)nicotinamide], for which the IC50 in assay [1] was below 0.13 nM; in assay [2] (Table of Biochemical Data), 0.3 nM. Besides, the GI50 in assay [3] came to 1.9 nM; in assay [4], 44 nM.
With `O=C(Nc1ccc(OC(F)(F)Cl)cc1)c1cnc(N2CC[C@@H](O)C2)c(-c2cnn(CCO)c2)c1` [Example 29, (R)—N-(4-(Chlorodifluoromethoxy)phenyl)-5-(1-(2-hydroxyethyl)-1H-pyrazol-4-yl)-6-(3-hydroxypyrrolidin-1-yl)nicotinamide], the IC50 came out at 9 nM in assay [1] and 0.9 nM in assay [2] (Table of Biochemical Data).
For the compound `NC[C@@H]1CCN(c2ncc(C(=O)Nc3ccc(OC(F)(F)Cl)cc3)cc2-c2ccn[nH]2)C1` [Example 21, (S)-6-(3-(Aminomethyl)pyrrolidin-1-yl)-N-(4-(chlorodifluoromethoxy)phenyl)-5-(1H-pyrazol-5-yl)nicotinamide], the IC50 in assay [1] worked out at 1 nM; in assay [2] (Table of Biochemical Data) it was 1.3 nM. The GI50 in assay [3] is 4 nM; in assay [4] it was 149 nM.
On to `O=C(Nc1ccc(S(F)(F)(F)(F)F)cc1)c1cnc(N2CC[C@@H](O)C2)c(-c2ccn[nH]2)c1` [Example 17, (R)-6-(3-Hydroxypyrrolidin-1-yl)-N-(4-(pentafluorosulfanyl)phenyl)-5-(1H-pyrazol-5-yl)nicotinamide], for which the values for the IC50 in assay [1] and in assay [2] (Table of Biochemical Data) were 3 nM and 2.4 nM, respectively. The GI50 in assay [3] turned out to be 15.5 nM; in assay [4], 199 nM.
As for `Cc1cc(-c2cc(C(=O)Nc3ccc(OC(F)(F)Cl)cc3)ccc2N2CC[C@@H](O)C2)[nH]n1` [Example 22, (R)—N-(4-(Chlorodifluoromethoxy)phenyl)-4-(3-hydroxypyrrolidin-1-yl)-3-(3-methyl-1H-pyrazol-5-yl)benzamide], the values for the IC50 in assay [1] and in assay [2] (Table of Biochemical Data) were 6 nM and below 0.64 nM, respectively.
With `Cc1cc(OC(F)(F)F)ccc1NC(=O)c1cnc(N2CC[C@@H](O)C2)c(-c2ccn[nH]2)c1`, the IC50 in assay [2] (setting [5]) stood at 1800 nM.
For the compound `O=C(Nc1ccc(SC(F)(F)Cl)cc1)c1cnc(N2CC[C@@H](O)C2)c(-c2ccn[nH]2)c1` [Example 18, (R)—N-(4-((Chlorodifluoromethyl)thio)phenyl)-6-(3-hydroxypyrrolidin-1-yl)-5-(1H-pyrazol-5-yl)nicotinamide], the IC50 in assay [1] stood at 2 nM; in assay [2] (Table of Biochemical Data), 0.2 nM. The GI50 in assay [3] came out at 1.5 nM; in assay [4] it was 32 nM.
For `O=C(Nc1ccc(OC(F)(F)Cl)cc1)c1ccc(N2CC[C@@H](O)C2)c(-c2[nH]ncc2F)c1` [Example 24, (R)—N-(4-(Chlorodifluoromethoxy)phenyl)-3-(4-fluoro-1H-pyrazol-5-yl)-4-(3-hydroxypyrrolidin-1-yl)benzamide], the IC50 was 5 nM in assay [1] and 0.4 nM in assay [2] (Table of Biochemical Data). In addition, the GI50 in assay [3] is 1.1 nM; in assay [4], 22 nM.
As to `O=C(Nc1ccc(SC(F)(F)F)nc1)c1cnc(N2CC[C@@H](O)C2)c(-c2ccn[nH]2)c1` [Example 32, (R)-6-(3-Hydroxypyrrolidin-1-yl)-5-(1H-pyrazol-5-yl)-N-(6-((trifluoromethyl)thio)pyridin-3-yl)nicotinamide], the IC50 in assay [1] amounted to 3 nM; in assay [2] (Table of Biochemical Data) it was 13 nM.
In the case of `O=C(Nc1ccc(SC(F)(F)F)cc1)c1cnc(N2CC[C@@H](O)C2)c(-c2ccn[nH]2)c1` [Example 11, (R)-6-(3-Hydroxypyrrolidin-1-yl)-5-(1H-pyrazol-5-yl)-N-(4-((trifluoromethyl)thio)phenyl)nicotinamide], the IC50 in assay [1] is below 3 nM; in assay [2] (Table of Biochemical Data) it was below 0.13 nM. In addition, the GI50 in assay [3] was 1 nM; in assay [4], 38 nM.
As for `O=C(Nc1ccc(OC(F)(F)Cl)cc1)c1ccc(N2CC[C@@H](O)C2)c(-c2ccn[nH]2)c1` [Example 20, (R)—N-(4-(Chlorodifluoromethoxy)phenyl)-4-(3-hydroxypyrrolidin-1-yl)-3-(1H-pyrazol-5-yl)benzamide], the IC50 in assay [1] was 1.3 nM; in assay [2] (Table of Biochemical Data) it was 0.4 nM.
Turning to `Cn1cc(-c2cc(C(=O)Nc3ccc(OC(F)(F)F)cc3)cnc2N2CC[C@@H](O)C2)cn1` [Example 6, (R)-6-(3-Hydroxypyrrolidin-1-yl)-5-(1-methyl-1H-pyrazol-4-yl)-N-(4-(trifluoromethoxy)phenyl)nicotinamide], the IC50 is 3 nM in assay [1] and 3.2 nM in assay [2] (Table of Biochemical Data).
With `Cn1nccc1-c1cc(C(=O)Nc2ccc(OC(F)(F)Cl)cc2)cnc1N1CC[C@@H](O)C1` [Example 27, (R)—N-(4-(Chlorodifluoromethoxy)phenyl)-6-(3-hydroxypyrrolidin-1-yl)-5-(1-methyl-1H-pyrazol-5-yl)nicotinamide], the IC50 was determined as 2 nM in assay [1] and 1.1 nM in assay [2] (Table of Biochemical Data).
`O=C(Nc1ccc(OC(F)(F)F)cc1)c1ccc(N2CC[C@@H](O)C2)c(-c2ccn[nH]2)c1` [Example 1, (R)-4-(3-Hydroxypyrrolidin-1-yl)-3-(1H-pyrazol-5-yl)-N-(4-(trifluoromethoxy)phenyl)benzamide]: the half-maximal inhibitory concentration (IC50) was below 3 nM in assay [1] and 2.2 nM in assay [2] (Table of Biochemical Data).
Regarding `O=C(Nc1ccc(OC(F)(F)F)cc1Cl)c1cnc(N2CC[C@@H](O)C2)c(-c2ccn[nH]2)c1`, the IC50 in assay [2] (setting [5]) stood at 1600 nM.
Regarding `O=C(Nc1ccc(OC(F)(F)Cl)cc1)c1cnc(N2CC[C@@H](OP(=O)(O)O)C2)c(-c2ccn[nH]2)c1` [Example 39, (R)-1-(5-(4-(Chlorodifluoromethoxy)phenyl)carbamoyl)-3-(1H-pyrazol-5-yl)pyridin-2-yl)pyrrolidin-3-yl dihydrogen phosphate], the figures for the half-inhibitory concentration (IC50) in assay [1] and in assay [2] (Table of Biochemical Data) were 3 nM and 1.3 nM, respectively.

Broadly, the IC50 is the concentration needed to halve the response being measured.

The values are drawn from patent publication US8829195B2, “Compounds and compositions for inhibiting the activity of ABL1, ABL2 and BCR-ABL1” (Novartis AG, priority 2012, dated 2014).
